# Entries after “also recorded” stand apart in the source; their conditions may differ.
# Legend:
# [1] = test system: Fibroblasts that ectopically express PPARγ; experiment: qPCR of FGF21 mRNA in fibroblasts that ectopically express PPARγ (Example 4); type: cell-based; conditions: 5 μM compound with 5 μM troglitazone, day 4 to 6
# Method: Cells were harvested on day 6 for qPCR measurement of FGF21 mRNA. Three separate dishes of cells were analyzed for each condition.
# [2] = molecular target: T1, SIRT1 (Homo sapiens, UniProt Q96EB6); experiment: SIRT1 p53-382 IC50 assay (Table 1); type: biochemical
# T1 sequence (Q96EB6 1-747): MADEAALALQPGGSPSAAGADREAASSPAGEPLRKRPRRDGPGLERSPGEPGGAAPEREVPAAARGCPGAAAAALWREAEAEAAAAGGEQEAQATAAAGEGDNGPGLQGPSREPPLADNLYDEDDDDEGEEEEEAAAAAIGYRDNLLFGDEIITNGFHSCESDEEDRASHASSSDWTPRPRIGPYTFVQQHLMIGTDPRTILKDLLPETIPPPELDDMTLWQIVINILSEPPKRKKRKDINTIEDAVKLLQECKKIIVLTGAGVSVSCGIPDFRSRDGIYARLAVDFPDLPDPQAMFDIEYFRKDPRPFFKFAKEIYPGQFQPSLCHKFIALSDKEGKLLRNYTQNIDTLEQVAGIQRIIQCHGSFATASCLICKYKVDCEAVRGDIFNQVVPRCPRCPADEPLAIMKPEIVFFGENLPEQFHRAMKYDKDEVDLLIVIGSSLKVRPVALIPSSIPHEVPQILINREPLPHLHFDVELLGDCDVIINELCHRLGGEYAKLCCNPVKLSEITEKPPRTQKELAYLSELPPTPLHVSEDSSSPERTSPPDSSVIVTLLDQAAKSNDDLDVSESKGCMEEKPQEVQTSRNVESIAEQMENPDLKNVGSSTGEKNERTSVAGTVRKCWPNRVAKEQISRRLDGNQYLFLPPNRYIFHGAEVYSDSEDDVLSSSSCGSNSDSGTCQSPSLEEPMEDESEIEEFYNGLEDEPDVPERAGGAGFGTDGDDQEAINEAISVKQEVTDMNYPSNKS
# [3] = molecular target: T1, SIRT1; experiment: Activity of enantiomers against the SIRT1 enzyme; type: biochemical; conditions: comparison of enantiomers
# [4] = test system: 3T3-L1 adipocytes; experiment: Western blot of adiponectin secretion and intracellular proteins in 3T3-L1 adipocytes; type: cell-based, Murine; conditions: for secretion of the HMW adiponectin complexes: non-reducing SDS-PAGE
# Method: Cell Culture: Murine 3T3-L1 preadipocytes were cultured and maintained in DMEM supplemented with […]. Differentiation was induced by exposure of postconfluent cells to DMEM containing 10% […], 1 μM dexamethasone (DEX), 0.5 mM 3-isobutyl-1-methylxanthine (MIX) and […] insulin. After 48 hours, the medium was changed to DMEM containing 10% FBS every two days. Human embryonic kidney (HEK)-293T cells were cultured in DMEM with 10% FBS; The Swiss F-PPARγ cells were differentiated as recently described (Wang et al, 2006; accompanying paper).
# Western Blot Analysis of Proteins: Isolation and western blot analysis of total cell proteins was performed as outlined previously (21). The antibodies employed in the analysis were as follows: Mouse polyclonal anti-adiponectin antibody (Affinity BioREagents, Golden, Colo.), polyclonal anti-SIRT1 antibody (Upstate), anti-PPARγ and anti-C/EBPα (Santa Cruz Biotechnology), anti-Ero1 polyclonal antibody (Abnova Co., Taiwan, China) and polyclonal anti-aP2 serum (Dr. David Benlohr at University of Minnesota). For analysis of secreted proteins, aliquots of the culture medium were centrifuged at low speed to remove debris and then subjected to standard SDS-PAGE as above or non-reducing SDS-PAGE as outlined by Kadowaki and collaborators (37). Prior to electrophoresis, the samples were mixed with 4× non-reducing protein sample buffer (200 mM, […], 8% SDS, 0.4% bromophenot blue, 40% glycerol) and incubated at room temperature for one hour. Care was taken to ensure that all components of the SDs PAGE system were completely free of reducing agents.
# [5] = test system: Swiss 3T3 fibroblasts expressing wild type PPARγ; experiment: RT-PCR of mRNAs in Swiss 3T3 fibroblasts expressing wild type PPARγ (FIG. 5); type: cell-based, mouse; conditions: troglitazone 5 μM or T0070907 10 μM with differentiation cocktail, day 6
# Method: Swiss 3T3 fibroblasts expressing wild type PPARγ or a control vector were induced to differentiate by exposure to a differentiation cocktail of dexamethasone, isobutylmethylxanthine and insulin in 10% FBS as outlined in Materials and Methods (Con). […] At day 6, cells were harvested for analysis of individual mRNAs as indicated using RT-PCR.
# Cell Culture: Murine 3T3-L1 preadipocytes were cultured and maintained in DMEM supplemented with 0% calf serum. Differentiation was induced by exposure of postconfluent cells to DMEM containing 10% MS, 1 μM dexamethasone (DEX), 0.5 mM 3-isobutyl-1-methylxanthine (MIX) and 1,61 μM insulin. After 48 hours, the medium was changed to DMEM containing 10% FBS every two days.
# A Analysis: Total RNA was isolated using TRIzol following the manufacturer's instructions and was subjected to RT-PCR analysis as outlined in the Promega product manual as previously described (31). […] In the case of analyzing Ero1-Lα mRNA, primers were the same as those listed above for generating the Ero1-Lα pRevTRE expression vector.
# [6] = test system: Swiss WT-PPARγ cells; experiment: RT-PCR of Group 1 and Group 2 genes in Swiss WT-PPARγ cells; type: cell-based, mouse; conditions: for expression of C/EBPα and adiponectin in response to endogenous ligands (FIG. 14B) / expression of the Group 2 genes in response to endogenous ligands (FIG. 14B): antagonist 10 μM, day 5
# Method: (§1) Cells were then harvested for extraction of RNA followed by RT-PCR analysis of FGF21 and FABP4/aP2 mRNAs as described in materials and methods. (B). […] (C). Reporter assays were also performed in Swiss fibroblasts stably expressing a WT-PPARγ or a pBabe-puro empty vector (control cells) following transfection of the FGF21 promoter reporter plasmids along with the renilla control vector in the presence or absence of GW1929. In both assays (B) and (C), a set of cells were also transfected with a reporter plasmid consisting of the PPRE from the aP2 gene upstream of luciferase within pGL3 (DR-1). Transcriptional activity of each of the fragments of the FGF21 gene promoter is shown as the ratio of luciferase to renilla activity (Luc/Ren) as described in materials and methods.
# (§2) Cells were refed every 2 days.
# [7] = test system: mouse FGF21 promotor constructs; experiment: FGF21 promoter luciferase reporter gene assay in Swiss fibroblasts; type: cell-based; conditions: 1 μM GW1929, 48 hours
# Method: as §1
# [8] = test system: Swiss EF-PPARγ cells; experiment: RT-PCR of Group 1 and Group 2 genes in Swiss EF-PPARγ / F-PPARγ cells
# Method: In (A), (B) and (C), total RNA of cells was isolated at day 5 using Trizol Reagent (Invitrogen) and subjected to RT-PCR analysis of the indicated Group 1 and Group 2 genes as described in materials and methods.
# Cell Culture: The Swiss fibroblast cell lines expressing wild type (WT.) and mutant forms of PPARγ (E, EF, F, DD) generated as previously described (22) and murine 3T3-L1 preadipocytes were grown in Dulbecco's modified Eagle's medium (DMEM) containing 10% FBS (fibroblasts) or 10% calf serum (preadipocytes) until confluent and were then maintained in the same medium for an additional 2 days. […] Cells were refed every 2 days.
# Analysis of RNA: Total cellular RNA was prepared using TRIzol reagent (InVitrogen) according to the manufacturer's instructions. As were made from equivalent amounts of total RNA by using Reverse Transcription System (Promega) as described previously (33).
# [9] = test system: Swiss F372A PPARγ cells (F-Ero1); experiment: Adiponectin secretion in Swiss F372A PPARγ cells with ectopic Ero1-Lα (FIG. 9); type: cell-based, mouse; conditions: F-Ero1 cells + tetracycline, 50 μM resveratrol for 2 days from day 4
# [10] = test system: 3T3-L1 adipocytes; experiment: RT-PCR of Group 1 and Group 2 genes in differentiating 3T3-L1 cells (FIG. 17); type: cell-based, murine; conditions: SIRT1 knockdown 3T3-L1 cells, day 4, 2 days exposure
# Description: Untreated and treated cells were harvested for analysis of select mRNAs using RT-PCR as described in materials and methods. […] (C). Model proposing interplay between PPARγ and SIRT1 in controlling adipocyte function, PPARγ functions to regulate adipocyte formation and function. Endogenous ligands activate PPARγ requiring participation of both helix 7 and 12 to orchestrate adipogenesis. In mature adipocytes, SIRT1 mediates hormonal and nutrient control of select PPARγ target genes that are involved in controlling metabolism by suppressing the action of endogenous ligands. The thiazolidinedione (TZD) family of synthetic PPARγ ligands can overcome the suppressive effects of SIRT1 acting through helix 7 as well as helix 12 to induce the metabolic genes.
# as §2
# [11] = test system: Ero1-Lα; experiment: Transient knockdown of Ero1-Lα in 3T3-L1 adipocytes; type: cell-based, Murine; conditions: 100 nM RNAi duplex, transfected day 4 and 5, harvested day 6
# Method: 3T3-L1 preadipocytes were cultured in 60 mm dishes and induced to differentiate as described above. On day 4, the differentiation-inducing medium was replaced with 2.5 mL, fresh DMEM containing 10% FBS. 15 μL TransIT-TKO Transfection Reagent (Mirus Bio Cooperadon. Madison, Wis.) was diluted into 250 μL serum free DMEM and incubated at room temperature for 20 minutes, at which time 100 nM Ero1-Lα RNAi duplex or control duplex […]) was added and mixed thoroughly. After incubation at room temperature for another 20 minutes, the resulting TranIT-TKO/RNAi mixture was gently mixed into the adipocyte cultures. The next day, the medium was changed to 2.5 mL flesh DMEM containing 10% FBS and the transfection was repeated as on day 4. On day 6, the total cellular proteins were harvested and subjected to Western blot analysis. The modified synthetic Ero1-Lα RNAi duplexes (Stealth™ siRNA) were from Invitrogen Life Technologies. The sequences are as follows:
# Western Blot Analysis of Proteins: Isolation and western blot analysis of total cell proteins was performed as outlined previously (21). […]
# [12] = control and SIRT1 knock down 3T3-L1 cells, T0070907 10 μM (FIG. 6D)
# [13] = troglitazone 5 μM or T0070907 10 μM, 3 days
# [14] = resveratrol 50 μM or nicotinamide 5 mM, 2 days
# [15] = resveratrol 50 μM or nicotinamide 5 mM, 2 days, reducing SDS-PAGE
compound,measurement,setting,value
NC(=O)C1CCCCc2c1[nH]c1ccc(Cl)cc21 (racemic) [Compound E2],FGF21 expression induced by troglitazone (FIG. 20),[1],potentiate the activity of troglitazone in inducing FGF21 expression
"Cc1ccc2[nH]c3c(c2c1)CCCC3C(N)=O (stereo not drawn) [Compound 4, 6-Methyl-2,3,4,9-tetrahydro-1H-carbazole-1-carboxylic acid amide]",IC50,[2],< 1000 nM
NC(=O)C1CCCc2c1[nH]c1ccc(Cl)cc21 (stereo not drawn) [Compound E1],activity against the SIRT1 enzyme,[3],inactive isomer
NC(=O)C1CCCc2c1[nH]c1ccc(Cl)cc21 (stereo not drawn) [Compound E3],activity against the SIRT1 enzyme,[3],active isomer
same,FGF21 expression induced by troglitazone (FIG. 20),[1],potentiate the activity of troglitazone in inducing FGF21 expression
O=C(Nc1ccncc1)c1cc([N+](=O)[O-])ccc1Cl [Compound T0070907],Ero1-Lα expression,[4]; [12],inhibits Ero1-Lα expression
same,adiponectin secretion,[4]; [12],suppresses adiponectin secretion
same,amount of secreted HMW adiponectin,[4]; [13],has the opposite effect
same,secretion of adipsin,[4]; [13],has the opposite effect
same,Ero1-Lα mRNA expression,[5],attenuates Ero1-Lα expression
same,expression of C/EBPα and adiponectin in response to endogenous ligands (FIG. 14B),[6],moderately attenuate
same,expression of the Group 2 genes in response to endogenous ligands (FIG. 14B),[6],almost completely block expression of the Group 2 genes; also recorded: the most potent
CN(CCOc1ccc(C[C@H](Nc2ccccc2C(=O)c2ccccc2)C(=O)O)cc1)c1ccccn1 [GW1929],transcriptional activity of the 500 bp fragment of the FGF21 gene,[7]; Swiss cells stably expressing WT-PPARγ,enhanced many fold
same,luciferase activity of FGF21 gene fragments (FIG. 15B),[7]; Swiss fibroblasts co-transfected with PPARγ expression plasmid,enhanced even further
same,luciferase activity of FGF21 gene fragments (FIG. 15B),[7]; control Swiss fibroblasts without PPARγ plasmid,has no affect on this activity
same,expression of select Group 1 genes (FIG. 14A),[8],capable of inducing expression of the Group 2 genes as well as Group 1 genes
O=C(Nc1ccccc1)c1cc([N+](=O)[O-])ccc1Cl [GW9662],expression of C/EBPα and adiponectin in response to endogenous ligands (FIG. 14B),[6],moderately attenuate
same,expression of the Group 2 genes in response to endogenous ligands (FIG. 14B),[6],almost completely block expression of the Group 2 genes
C[C@@H]1C[C@@H]([C@H](O)CC2CC(=O)NC(=O)C2)C(=O)[C@@H](C)C1 [cycloheximide],FGF21 mRNA expression (FIG. 15A),"[6]; day 5 cells, troglitazone 5 μM or cycloheximide 5 μg/ml for 4, 6 or 8 hrs",induced simply due to exposure to cycloheximide
O=C[C@H](O)[C@@H](O)[C@H](O)[C@H](O)CO [glucose],secretion of HMW forms of adiponectin,"[4]; glucose or 20 mM lactate, non-reducing SDS-PAGE without heat",significant increase in the appearance of the HMW species in the media
same,SIRT1 expression,"[4]; increase in glucose concentration, 72 hrs",significant decrease of SIRT1 expression
same,amount of adiponectin secreted into the medium (Ext),"[4]; increasing concentrations of glucose, 72 hrs, reducing SDS-PAGE",dramatically increases the amount of adiponectin secreted into the medium
NC(=O)c1cccnc1 [nicotinamide],secretion of adipsin,[4]; [14],has no effect on adipsin
same,secretion of the HMW adiponectin complexes,[4]; [14],enhances
same,secretion of adiponectin (Ext),[4]; [15],enhancing secretion of adiponectin
Oc1ccc(C=Cc2cc(O)cc(O)c2)cc1 [resveratrol],secretion of adipsin,[4]; [14],without affecting secretion of adipsin
same,secretion of the HMW adiponectin complexes,[4]; [14],decreases
same,secretion of adiponectin (Ext),[4]; [15],reduces the secretion of adiponectin
same,secretion of adiponectin,[9],inhibits secretion of adiponectin
Cc1c(C)c2c(c(C)c1O)CCC(C)(COc1ccc(CC3SC(=O)NC3=O)cc1)O2 (stereo not drawn) [troglitazone],dose of troglitazone inducing FGF21 and Egln1 (FIG. 17B),[10],250 nM
same,"doses of troglitazone inducing C/EBPα, adiponectin and FABP4/aP2 (FIG. 14C)","[8]; EF-PPARγ cells, 5 days",250 to 500 nM
OCCS [β-mercaptoethanol],secretion of adiponectin,"[4]; β-mercaptoethanol treatment, preliminary data, not shown",significantly enhances the secretion of adiponectin
GGGCUCUCUCCAAAGUGCUUCCAUU [siRNA #3],attenuation of Ero1-Lα expression,[11],the most effective
